# Patent US20240182893A1, “INHIBITION OF FGR REDUCES FIBROSIS” (UNIVERSITY OF PITTSBURGH-OF THE COMMONWEALTH SYSTEM OF …, priority 2021, published 2024)
# “Also recorded” adds a separate entry of the source.
# How the values were obtained:
# [1] = test system: target C57BL/6 stromal cells; experiment: Non-contact transwell coculture: irradiated senescent tdTOMp16+ stromal cells on top, target cells at bottom, RT-qPCR of profibrotic genes; type: cell-based, mouse
# Description: It was also confirmed that the RIS cells showing upregulation of Fgr RNA by heat map also had higher RNA levels. Validation of RNA for p16 and p21, as well as Fgr was carried out (FIG. 5A-FIG. 5C). To establish that irradiated tdTOMp16+ senescent cells induce profibrotic genes, a C57BL/6 target cell line, and a noncontact transwell co-culture system was used (FIG. 6A). Irradiated red cells were compared to 0 Gy or irradiated non-red cells. Sorted red cells, were placed on the top of each well and C57/B6 mouse stromal target cells were plated at the bottom well and observed for two weeks. There was significant induction of collagen 1al and collagen 3 in C57/B6 target cells by RIS red cells (FIG. 6B-FIG. 6C). […] (FIG. 6D).
# Transwell experiment: Control and Fgr knockdown stable cell lines were irradiated with 5 Gy by Cesium Gamma Cell dose rate 300 cGy/min. Ten days after radiation, red senescent and non-red non-senescent cells were sorted using MoFlo Astrios Cell Sorter (Beckman Coulter). Senescent and non-senescent cells were plated on the top well of the transwell with a […] pore size (Coster, Cat. No. 3412) and the target C57BL/6 cell line for the evaluation of fibrotic markers was plated at the bottom. 2 weeks later total RNA was extracted from the target C57BL/6 cells and evaluated by qPCR for Collagen 3 (Mm01254476_m1) and TGF-beta (Mm01191861_m1). GAPDH (Mm99999915_g1) was used as the loading control.
# Transwell coculture experiments. A Transwell system (0.4-μm pore size, polyester membrane; Corning, Kennebunk, ME) was used (Ejaz A et al. Stem Cells. 2019, 37, 791-802). C57BL/6 mouse bone marrow stromal cells or mouse primary tail fibroblasts were cultured in the bottom surface of a 9-cm^2 culture dishes. Above the adherent layer in the transwell, tdTOMp16+ bone marrow stromal cells (non-irradiated, irradiated non-sorted, irradiated, and sorted senescent tdTOM+, or irradiated non-senescent tdTOM− cells) were cultured in the upper transwell. […] For the stable Fgr shRNA cells, non-target control and Fgr shRNA knockdown cell lines were also irradiated and sorted following the same protocol. Briefly, tdTOMp16+ cells were irradiated and after 10 days of radiation, the cells were FACS sorted for tdTOM+ and tdTOM− cells and 3×10^5 cells added on the top wells in each case. Coculture was maintained for another 10 days. The target cells from the bottom well were lysed, and total RNA was isolated using TRizol (Sigma) reagent following the manufacturer's protocol. cDNA was synthesized, and expression of profibrotic genes (TGF-β1, CTGF, collagens (Col1, Col3), and α-SMA were analyzed using gene-specific TaqMan primers employing quantitative real-time polymerase chain reaction (PCR).
# In vitro transwell experiments. Senescent bone marrow derived irradiated (5 Gy, subconfluent cultures held for 10 days) tdTOMp16+ cells were sorted for TOM+ (red) color and placed in Transwell cultures. Two types of transwell experiments were carried out. For induction of fibrosis biomarkers in target cells, senescent cells were placed into the top chamber separated from target mesenchymal stem cells (MSCs) derived from the adherent layer of long term C57Bl/6 mouse bone marrow cultures in the bottom chamber by a 0.4-micron pore size membrane. […] The migration of gfp+ cells through the filter to the bottom compartment was measured by imaging the bottom wells and counting gfp+ cells relative to numbers of senescent TOM+ (red) cells. […]
# Src-family kinase Fgr = Src-family kinase Fgr (Homo sapiens, UniProt P09769); settings: cited from earlier work
# [2] = 10 nM TL02-59, 10 days, FIG. 23
# Sequence of Src-family kinase Fgr (P09769 whole entry): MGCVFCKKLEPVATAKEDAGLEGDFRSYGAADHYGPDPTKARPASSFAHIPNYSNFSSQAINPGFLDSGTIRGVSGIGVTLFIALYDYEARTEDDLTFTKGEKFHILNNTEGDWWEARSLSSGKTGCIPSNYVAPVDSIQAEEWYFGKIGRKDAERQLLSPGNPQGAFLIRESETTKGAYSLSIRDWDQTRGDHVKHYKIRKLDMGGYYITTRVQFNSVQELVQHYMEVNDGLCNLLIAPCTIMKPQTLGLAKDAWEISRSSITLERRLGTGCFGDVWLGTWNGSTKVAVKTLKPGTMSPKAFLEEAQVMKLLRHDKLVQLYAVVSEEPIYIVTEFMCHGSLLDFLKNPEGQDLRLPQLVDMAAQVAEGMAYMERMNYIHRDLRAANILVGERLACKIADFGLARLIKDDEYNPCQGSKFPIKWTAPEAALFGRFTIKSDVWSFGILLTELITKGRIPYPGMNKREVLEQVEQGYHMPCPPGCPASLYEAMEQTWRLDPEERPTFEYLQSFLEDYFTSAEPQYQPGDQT
compound,measurement,setting,value
CCN1CCN(Cc2ccc(NC(=O)c3ccc(C)c(Oc4ncnc5cc(OC)c(OC)cc45)c3)cc2C(F)(F)F)CC1 [TL02-59],induction of TGF-beta in target cells by tdTOM+ senescent cells (RT-qPCR),[1]; [2],significantly inhibited induction; also recorded: abrogates the induction of profibrotic genes
same,induction of collagen 3 in target cells by tdTOM+ senescent cells (RT-qPCR),[1]; [2],significantly inhibited induction; also recorded: abrogates the induction of profibrotic genes
same,induction of fibrosis biomarkers TGF-β and Collagen 3 in target mesenchymal stem cells,"[1]; TL02-59 10 nM, 10 days, FIG. 44",blocked; also recorded: inhibits the induction
same,induction of collagen 3 in target cells by RIS red cells,"[1]; TL02-59 1 μm, transwell, after 2 weeks, FIG. 6D",reduced the induction of collagen 3; also recorded: blocks senescent cell induction
same,"induction of biomarkers of fibrosis (collagen 1a1, collagen 3, TGF-β) in target cells by RIS cells","[1]; transwell co-culture, tdTOMp16+ stromal cell line",abrogates the induction of biomarkers of fibrosis; also recorded: abrogated senescent cell induction of profibrotic genes
same,primary target kinase,Src-family kinase Fgr,primary target
